{"source": "paper PMC11477482", "about": "(Molecules, 2024)", "test_system": "RAW264.7 cells (mitochondrial O2− production)", "experiment": "Mitochondrial antioxidant activity (MitoSOX, rotenone-induced superoxide)", "type": "cell-based, mouse", "conditions": "rotenone 20 μM alone, oxidative stress inducer", "experimental": "The human keratinocytes (HaCaT, CLS 300493, Eppelheim, Germany) cell line was cultured with Dulbecco’s Modified Eagle’s Medium (DMEM) (Sigma-Aldrich, St. Louis, MO, USA), supplemented with 10% (v/v) of heat-inactivated fetal bovine serum (FBS), 1% (v/v) antibiotic solution (from a 10,000 U/mL penicillin and 10,000 μg/mL streptomycin stock) (Gibco, Carlsbad, CA, USA), 3.7 g/L sodium bicarbonate, and 1 mM sodium pyruvate (Sigma-Aldrich, St. Louis, MO, USA). The cell culture of keratinocytes was detached with EDTA solution 1X (Sigma-Aldrich, St. Louis, MO, USA) when the cells reached 70–80% confluence in cell culture flasks. The mouse macrophage cell line (RAW 264.7, ATCC TIB-71, Manassas, VA, USA) was cultured in DMEM supplemented with 10% (v/v) non-inactivated FBS, 1% (v/v) antibiotic solution, 1.5 g/L sodium bicarbonate, and 1 mM sodium pyruvate. Macrophages were mechanically detached with a cell scraper and subcultured in (1:10) proportion of cellular suspension to a final volume of DMEM. The human monocytic cell line THP-1 (ATCC® TIB-202™, American Type Culture Collection, Manassas, VA, USA) was cultivated in RPMI 1640 supplemented with 10% inactivated FBS, 25 mM (D)-glucose, 10 mM HEPES, 1 mM sodium pyruvate, 100 U/mL penicillin, and 100 μg/mL streptomycin, and maintained at a cell density of 0.4 × 10^6 cells/mL. Cells were subcultured every 2 or 3 days and maintained in culture for 2–3 months, according to ATCC® instructions.\nMitochondrial superoxide (O2^−) generation was determined using the MitoSOX Red kit, according to the manufacturer’s instructions. Briefly, 5.0 × 10^5 cells/mL were plated in a 12-well plate and incubated for 24 h at 37 °C. The cells were then exposed to the AA, AAG and AAGS solution (500 µM), and after 1 h, rotenone (20 μM) was added, followed by incubation for an additional 5 h. The cells were then carefully detached, transferred to microtubes, and centrifuged at 500× g for 3 min. The cell pellet was washed with HBSS solution (2 × 1 mL), resuspended in PBS solution, and 300 µL was collected in two microtubes for unstained (150 µL) and stained (150 µL) conditions. The stained cells were incubated with 100 μL of freshly prepared MitoSOX solution 2.5 µM at 37 °C for 15 min in the dark. The stained cells were washed with HBSS solution (2 × 1 mL), and the cell pellet was resuspended in 100 μL of PBS and analyzed by flow cytometry using a BD Accuri™ C6 cytometer (San Jose, CA, USA).\nCD86 and CD54 levels were analyzed by flow cytometry using the acquisition channels FL1 and FL4. Mitochondrial O2^− production was measured by flow cytometry using the acquisition channel FL2. The relative fluorescence intensity (RFI) of CD86 and CD54 (THP-1 maturation assay) and MitoSOX (mitochondrial antioxidant activity) in the control and chemical-treated cells, based on the geometric mean fluorescence intensity (MFI), was calculated according to the following equation: RFI=MFI of chemical treated cells−MFI of chemical treated unstained cells/MFI of control treated cells−MFI of control unstained cells ×100", "data": [{"molecule": "C=C(C)[C@H]1Cc2c(ccc3c2O[C@@H]2COc4cc(OC)c(OC)cc4[C@@H]2C3=O)O1", "note": "[Rotenone]", "values": [{"measurement": "relative fluorescence intensity (RFI) of MitoSOX", "result": "269.70 ± 11.63", "unit": "%"}]}]}
